Patent US6620325B2, “Purification process for cyclosporin” (Novartis AG, priority 1996, dated 2003)

What was measured:
[1] = Distribution coefficient of cyclosporins between lighter organic phase and heavier aqueous phase (n-heptane/acetone/water); assay type: physicochemical; details: conc. in lighter phase / conc. in heavier aqueous phase at 40° C.; 75% n-heptane/25% acetone vs 50% acetone/50% water
Experimental: The distribution coefficient is defined herein as the ratio of the concentration (in g/unit volume) of product in the lighter phase to the concentration (in g/unit volume) of product in the heavier aqueous phase at 40° C.

[2] = Distribution coefficient in n-heptane/isopropanol/water phase system; assay type: physicochemical; details: lighter phase about 90% n-heptane/10% isopropanol; heavier phase about 32% isopropanol/68% water
Excerpt: The present applicants have found an n-heptane/isopropanol/water system to be effective for purifying 33-epi-chloro-33-desoxyascomycin. In one embodiment, the following phase system is used to purify 33-epi-chloro-33-desoxyascomycin: the lighter phase comprises a mixture in weight-% of about 90% n-heptane, e.g. 89%, and about 10% isopropanol, e.g. 11%; the heavier hase comprises a mixture of about 32% isopropanol, e.g. 31%, and about 68% water, e.g. 69%.
The distribution coefficient is defined herein as the ratio of the concentration (in g/unit volume) of product in the lighter phase to the concentration (in g/unit volume) of product in the heavier aqueous phase at 40° C. The following distribution coefficients are obtained for cyclosporins between 75% n-heptane /25% acetone as lighter organic phase, and 50% acetone 50% water as heavier aqueous phase:
The distribution coefficient for 33-epi-chloro-33-desoxyascomycin is found to be around 7.6 using the above n-heptane/isopropanol/water phase system. The selectivity of ascomycin derivative side product to 33-epi-chloro-33-desoxyascomycin is found to be approximately 1.44.

Compound	Distribution coefficient (to one decimal place) [1]	Distribution coefficient [2]
C/C=C/C[C@@H](C)[C@@H](O)[C@H]1C(=O)N[C@@H](C(C)C)C(=O)N(C)CC(=O)N(C)[C@@H](CC(C)C)C(=O)N[C@@H](C(C)C)C(=O)N(C)[C@@H](CC(C)C)C(=O)N[C@@H](C)C(=O)N[C@H](C)C(=O)N(C)[C@@H](CC(C)C)C(=O)N(C)[C@@H](CC(C)C)C(=O)N(C)[C@@H](C(C)C)C(=O)N1C [Cyclosporin D]	1.7	
C/C=C/C[C@@H](C)[C@@H](O)[C@H]1C(=O)N[C@@H](CCC)C(=O)N(C)CC(=O)N(C)[C@@H](CC(C)C)C(=O)N[C@@H](C(C)C)C(=O)N(C)[C@@H](CC(C)C)C(=O)N[C@@H](C)C(=O)N[C@H](C)C(=O)N(C)[C@@H](CC(C)C)C(=O)N(C)[C@@H](CC(C)C)C(=O)N(C)[C@@H](C(C)C)C(=O)N1C [Cyclosporin G]	1.3	
C/C=C/C[C@@H](C)[C@@H](O)[C@H]1C(=O)N[C@@H]([C@@H](C)O)C(=O)N(C)CC(=O)N(C)[C@@H](CC(C)C)C(=O)N[C@@H](C(C)C)C(=O)N(C)[C@@H](CC(C)C)C(=O)N[C@@H](C)C(=O)N[C@H](C)C(=O)N(C)[C@@H](CC(C)C)C(=O)N(C)[C@@H](CC(C)C)C(=O)N(C)[C@@H](C(C)C)C(=O)N1C [Cyclosporin C]	0.3	
CC[C@@H]1/C=C(\C)C[C@H](C)C[C@H](OC)[C@H]2O[C@@](O)(C(=O)C(=O)N3CCCC[C@H]3C(=O)O[C@H](/C(C)=C/[C@@H]3CC[C@H](Cl)[C@H](OC)C3)[C@H](C)[C@@H](O)CC1=O)[C@H](C)C[C@@H]2OC [33-epi-chloro-33-desoxyascomycin]		around 7.6
C/C=C/C[C@@H](C)[C@@H](O)[C@H]1C(=O)N[C@@H](C)C(=O)N(C)CC(=O)N(C)[C@@H](CC(C)C)C(=O)N[C@@H](C(C)C)C(=O)N(C)[C@@H](CC(C)C)C(=O)N[C@@H](C)C(=O)N[C@H](C)C(=O)N(C)[C@@H](CC(C)C)C(=O)N(C)[C@@H](CC(C)C)C(=O)N(C)[C@@H](C(C)C)C(=O)N1C [Cyclosporin B]	0.4	
C/C=C/C[C@@H](C)[C@@H](O)[C@@H]1NC(=O)[C@H](C(C)C)N(C)C(=O)[C@H](CC(C)C)N(C)C(=O)[C@H](CC(C)C)N(C)C(=O)[C@@H](C)NC(=O)[C@H](C)NC(=O)[C@H](CC(C)C)N(C)C(=O)[C@H](C(C)C)NC(=O)[C@H](CC(C)C)N(C)C(=O)CN(C)C(=O)[C@H](CC)NC1=O [Cyclosporin L]	0.5	
C/C=C/C[C@@H](C)[C@@H](O)[C@H]1C(=O)N[C@@H](CC)C(=O)N(C)CC(=O)N(C)[C@@H](CC(C)C)C(=O)N[C@@H](C(C)C)C(=O)N[C@@H](CC(C)C)C(=O)N[C@@H](C)C(=O)N[C@H](C)C(=O)N(C)[C@@H](CC(C)C)C(=O)N(C)[C@@H](CC(C)C)C(=O)N(C)[C@@H](C(C)C)C(=O)N1C [Cyclosporin U]	0.6	
CCCC[C@@H](C)[C@@H](O)[C@H]1C(=O)N[C@@H](CC)C(=O)N(C)CC(=O)N(C)[C@@H](CC(C)C)C(=O)N[C@@H](C(C)C)C(=O)N(C)[C@@H](CC(C)C)C(=O)N[C@@H](C)C(=O)N[C@H](C)C(=O)N(C)[C@@H](CC(C)C)C(=O)N(C)[C@@H](CC(C)C)C(=O)N(C)[C@@H](C(C)C)C(=O)N1C [Cyclosporin Dihydro-A, dihydro-Cyclosporin A]	1.0	
